Reference: PubChem BioAssay AID1918939 (Molecular Pharmacology Branch, DTP, NCI, 2023)

System: 653999-131-R-J2-PDC complex spheroid viability
Experiment: Anticancer human tumor 653999-131-R-J2-PDC patient-derived lung adenocarcinoma cell line growth inhibition
Settings: for IC50: curve of first compound; for viability, T/C: stronger effect = lower value
Outline: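 Drug combinations with the LSD1 inhibitor iadademstat tested on tumor cells co-cultured as spheroids with endothelial cells and mesenchymal stem cells. Concentrations descended in half-log increments from clinical Cmax or 10 microM.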

[1] = second compound 0.1 µM, first compound 0.0316 µM
[2] = second compound 0.1 µM, first compound 0.1 µM
[3] = second compound 0.1 µM, first compound 0.316 µM
[4] = second compound 0.1 µM, first compound 1 µM
[5] = second compound 0.1 µM, first compound 3.16 µM
[6] = second compound 0.1 µM, first compound 10 µM
[7] = second compound 0.316 µM, first compound 0.0316 µM
[8] = second compound 0.316 µM, first compound 0.1 µM
[9] = second compound 0.316 µM, first compound 0.316 µM
[10] = second compound 0.316 µM, first compound 1 µM
[11] = second compound 0.316 µM, first compound 3.16 µM
[12] = second compound 0.316 µM, first compound 10 µM
[13] = second compound 1 µM, first compound 0.0316 µM
[14] = second compound 1 µM, first compound 0.1 µM
[15] = second compound 1 µM, first compound 0.316 µM
[16] = second compound 1 µM, first compound 1 µM
[17] = second compound 1 µM, first compound 3.16 µM
[18] = second compound 1 µM, first compound 10 µM
[19] = second compound 3.16 µM, first compound 0.0316 µM
[20] = second compound 3.16 µM, first compound 0.1 µM
[21] = second compound 3.16 µM, first compound 0.316 µM
[22] = second compound 3.16 µM, first compound 1 µM
[23] = second compound 3.16 µM, first compound 3.16 µM
[24] = second compound 3.16 µM, first compound 10 µM
[25] = second compound 10 µM, first compound 0.0316 µM
[26] = second compound 10 µM, first compound 0.1 µM
[27] = second compound 10 µM, first compound 0.316 µM
[28] = second compound 10 µM, first compound 1 µM
[29] = second compound 10 µM, first compound 3.16 µM
[30] = second compound 10 µM, first compound 10 µM
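Further: spheroids exposed to agents for seven days before readout.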

Row | SMILES | IC50 (second compound 0.1 µM) [µM] | IC50 (second compound 0.316 µM) [µM] | IC50 (second compound 1 µM) [µM] | IC50 (second compound 3.16 µM) [µM] | IC50 (second compound 10 µM) [µM] | viability, T/C [1] [%] | viability, T/C [2] [%] | viability, T/C [3] [%] | viability, T/C [4] [%] | viability, T/C [5] [%] | viability, T/C [6] [%] | viability, T/C [7] [%] | viability, T/C [8] [%] | viability, T/C [9] [%] | viability, T/C [10] [%] | viability, T/C [11] [%] | viability, T/C [12] [%] | viability, T/C [13] [%] | viability, T/C [14] [%] | viability, T/C [15] [%] | also measured
1 | CC1(C)CCC(CN2CCN(c3ccc(C(=O)NS(=O)(=O)c4ccc(NCC5CCOCC5)c([N+](=O)[O-])c4)c(Oc4cnc5[nH]ccc5c4)c3)CC2)=C(c2ccc(Cl)cc2)C1 + NC1CC1c1ccc(-c2cccc(O)c2)cc1 | 5.74 | 4.87 | 5.19 | 5.26 | 4.53 | 117 | 118 | 107 | 102 | 81.5 | 21.6 | 103 | 112 | 101 | 99.3 | 65.7 | 23.6 | 103 | 101 | 107 | viability, T/C [16]: 107%; viability, T/C [17]: 72.6%; viability, T/C [18]: 20.2%; viability, T/C [19]: 89.9%; viability, T/C [20]: 84.2%; viability, T/C [21]: 105%; viability, T/C [22]: 86.8%; viability, T/C [23]: 76.5%; viability, T/C [24]: 16.8%; viability, T/C [25]: 85.3%; viability, T/C [26]: 102%; viability, T/C [27]: 89.4%; viability, T/C [28]: 95.8%; viability, T/C [29]: 68.8%; viability, T/C [30]: 8.78%
2 | CC1COCCN1c1cc(C2(S(C)(=N)=O)CC2)nc(-c2ccnc3[nH]ccc23)n1 (stereo not given) + NC1CC1c1ccc(-c2cccc(O)c2)cc1 | > 10 | 2.11 | 1.58 | 2.65 | 2.26 | 99.7 | 100 | 102 | 77.7 | 47.9 | 51.7 | 104 | 95.3 | 92.5 | 62.7 | 42.5 | 40.2 | 83.1 | 98.6 | 83.7 | viability, T/C [16]: 57.2%; viability, T/C [17]: 39.8%; viability, T/C [18]: 36.7%; viability, T/C [19]: 90.2%; viability, T/C [20]: 108%; viability, T/C [21]: 94.5%; viability, T/C [22]: 73.2%; viability, T/C [23]: 43.9%; viability, T/C [24]: 47.1%; viability, T/C [25]: 77.2%; viability, T/C [26]: 93%; viability, T/C [27]: 82.3%; viability, T/C [28]: 64%; viability, T/C [29]: 41.1%; viability, T/C [30]: 47.3%
